Data published in patent US6339042B1, “Herbicidal N-cyclohexadienyl heteroaryloxyacetamides” (American Cyanamid Co., priority 1999, dated 2002).

What was measured:
Settings in all cases: three weeks after treatment
Zea mays [1] = assay: Pre-emergence herbicidal evaluation, ZEAMX; type: in vivo
From the text: (§1) The treated pots are then placed on greenhouse benches, watered and cared for in accordance with conventional greenhouse procedures.

Oryza sativum [2] = assay: Post-emergence herbicidal evaluation, ORYSA
Amaranthus tuberculatus [3] = assay: Pre-emergence herbicidal evaluation, AMATA; type: in vivo
From the text: as §1

Apera spica venti [4] = assay: Pre-emergence herbicidal evaluation, APESV; type: in vivo
From the text: as §1

Setaria viridis [5] = assay: Post-emergence herbicidal evaluation, SETVI
Hordeum vulgare [6] = assay: Post-emergence herbicidal evaluation, HORVW
Zea mays [7] = assay: Post-emergence herbicidal evaluation, ZEAMX
Triticum aestivum [8] = assay: Pre-emergence herbicidal evaluation, TRZAW; type: in vivo
From the text: as §1

Alopecurus myosuroides [9] = assay: Pre-emergence herbicidal evaluation, ALOMY; type: in vivo
From the text: as §1

Galium aparine = assay: Post-emergence herbicidal evaluation, GALAP
Lolium perenne [10] = assay: Post-emergence herbicidal evaluation, LOLPE
Alopecurus myosuroides [11] = assay: Post-emergence herbicidal evaluation, ALOMY
Description: (§2) The compounds of the invention are tested for pre- and post-emergence herbicidal activity.
(§3) Each pot is examined three weeks after treatment and phytotoxicity is assessed according to the rating system set forth below.
(§4) These acetone solutions are diluted with water and the resulting formulations applied at dosage levels equivalent of about 0.4 to 0.1 kg per hectare of test compound per pot. After spraying the plants are placed on greenhouse benches and are cared for in the usual manner, commensurate with conventional greenhouse practices.

Oryza sativum [12] = assay: Pre-emergence herbicidal evaluation, ORYSA; type: in vivo
From the text: as §1

Glycine max [13] = assay: Pre-emergence herbicidal evaluation, GLXMA; type: in vivo
From the text: as §1

Echinochloa crus-galli [14] = assay: Post-emergence herbicidal evaluation, ECHCG
Apera spica venti [15] = assay: Post-emergence herbicidal evaluation, APESV
Description: as §2, §3, §4

Glycine max [16] = assay: Post-emergence herbicidal evaluation, GLXMA
Setaria viridis [17] = assay: Pre-emergence herbicidal evaluation, SETVI; type: in vivo
From the text: as §1

Lolium perenne [18] = assay: Pre-emergence herbicidal evaluation, LOLPE; type: in vivo
From the text: as §1

Triticum aestivum [19] = assay: Post-emergence herbicidal evaluation, TRZAW
Amaranthus tuberculatus [20] = assay: Post-emergence herbicidal evaluation, AMATA; type: in vivo
Echinochloa crus-galli [21] = assay: Pre-emergence herbicidal evaluation, ECHCG; type: in vivo
From the text: as §1

Hordeum vulgare [22] = assay: Pre-emergence herbicidal evaluation, HORVW; type: in vivo
From the text: as §1

## CC1=CC(N(C)C(=O)COc2nc3ccccc3o2)=CC(C)(C)C1 [Example 16]
Zea mays [1]; 0.100 kg/ha
  phytotoxicity rating ZEAMX: 0 (0 - No effect)
Zea mays [1]; 0.200 kg/ha
  phytotoxicity rating ZEAMX: 0 (0 - No effect)
Zea mays [1]; 0.400 kg/ha
  phytotoxicity rating ZEAMX: 0 (0 - No effect)
Zea mays [1]; 0.800 kg/ha
  phytotoxicity rating ZEAMX: 0 (0 - No effect)
Oryza sativum [2]; 0.100 kg/ha
  phytotoxicity rating ORYSA: 0 (0 - No effect)
Oryza sativum [2]; 0.200 kg/ha
  phytotoxicity rating ORYSA: 0 (0 - No effect)
Oryza sativum [2]; 0.400 kg/ha
  phytotoxicity rating ORYSA: 2 (2 - Slight effect)
Amaranthus tuberculatus [3]; 0.100 kg/ha
  phytotoxicity rating AMATA: 0 (0 - No effect)
Amaranthus tuberculatus [3]; 0.200 kg/ha
  phytotoxicity rating AMATA: 3 (3 - Moderate effect)
Amaranthus tuberculatus [3]; 0.400 kg/ha
  phytotoxicity rating AMATA: 3 (3 - Moderate effect)
Amaranthus tuberculatus [3]; 0.800 kg/ha
  phytotoxicity rating AMATA: 7 (7 - Good herbicidal effect)
Apera spica venti [4]; 0.200 kg/ha
  phytotoxicity rating APESV: 4 (4 - Injury)
Apera spica venti [4]; 0.400 kg/ha
  phytotoxicity rating APESV: 8 (8 - Approaching complete kill)
Apera spica venti [4]; 0.800 kg/ha
  phytotoxicity rating APESV: 9 (9 - Complete kill)
Setaria viridis [5]; 0.100 kg/ha
  phytotoxicity rating SETVI: 0 (0 - No effect)
Setaria viridis [5]; 0.200 kg/ha
  phytotoxicity rating SETVI: 0 (0 - No effect)
Setaria viridis [5]; 0.400 kg/ha
  phytotoxicity rating SETVI: 0 (0 - No effect)
Hordeum vulgare [6]; 0.100 kg/ha
  phytotoxicity rating HORVW: 0 (0 - No effect)
Hordeum vulgare [6]; 0.200 kg/ha
  phytotoxicity rating HORVW: 0 (0 - No effect)
Hordeum vulgare [6]; 0.400 kg/ha
  phytotoxicity rating HORVW: 2 (2 - Slight effect)
Zea mays [7]; 0.100 kg/ha
  phytotoxicity rating ZEAMX: 0 (0 - No effect)
Zea mays [7]; 0.200 kg/ha
  phytotoxicity rating ZEAMX: 0 (0 - No effect)
Zea mays [7]; 0.400 kg/ha
  phytotoxicity rating ZEAMX: 0 (0 - No effect)
Triticum aestivum [8]; 0.100 kg/ha
  phytotoxicity rating TRZAW: 0 (0 - No effect)
Triticum aestivum [8]; 0.200 kg/ha
  phytotoxicity rating TRZAW: 0 (0 - No effect)
Triticum aestivum [8]; 0.400 kg/ha
  phytotoxicity rating TRZAW: 0 (0 - No effect)
Triticum aestivum [8]; 0.800 kg/ha
  phytotoxicity rating TRZAW: 1 (1 - Trace effect)
Alopecurus myosuroides [9]; 0.100 kg/ha
  phytotoxicity rating ALOMY: 6 (6 - Herbicidal effect)
Alopecurus myosuroides [9]; 0.200 kg/ha
  phytotoxicity rating ALOMY: 8 (8 - Approaching complete kill)
Alopecurus myosuroides [9]; 0.400 kg/ha
  phytotoxicity rating ALOMY: 8 (8 - Approaching complete kill)
Alopecurus myosuroides [9]; 0.800 kg/ha
  phytotoxicity rating ALOMY: 9 (9 - Complete kill)
Galium aparine; 0.100 kg/ha
  phytotoxicity rating GALAP: 3 (3 - Moderate effect)
Galium aparine; 0.200 kg/ha
  phytotoxicity rating GALAP: 3 (3 - Moderate effect)
Galium aparine; 0.400 kg/ha
  phytotoxicity rating GALAP: 4 (4 - Injury)
Lolium perenne [10]; 0.100 kg/ha
  phytotoxicity rating LOLPE: 4 (4 - Injury)
Lolium perenne [10]; 0.200 kg/ha
  phytotoxicity rating LOLPE: 6 (6 - Herbicidal effect)
Lolium perenne [10]; 0.400 kg/ha
  phytotoxicity rating LOLPE: 7 (7 - Good herbicidal effect)
Alopecurus myosuroides [11]; 0.100 kg/ha
  phytotoxicity rating ALOMY: 2 (2 - Slight effect)
Alopecurus myosuroides [11]; 0.200 kg/ha
  phytotoxicity rating ALOMY: 5 (5 - Definite injury)
Alopecurus myosuroides [11]; 0.400 kg/ha
  phytotoxicity rating ALOMY: 7 (7 - Good herbicidal effect)
Oryza sativum [12]; 0.100 kg/ha
  phytotoxicity rating ORYSA: 0 (0 - No effect)
Oryza sativum [12]; 0.200 kg/ha
  phytotoxicity rating ORYSA: 0 (0 - No effect)
Oryza sativum [12]; 0.400 kg/ha
  phytotoxicity rating ORYSA: 2 (2 - Slight effect)
Oryza sativum [12]; 0.800 kg/ha
  phytotoxicity rating ORYSA: 5 (5 - Definite injury)
Glycine max [13]; 0.100 kg/ha
  phytotoxicity rating GLXMA: 0 (0 - No effect)
Glycine max [13]; 0.200 kg/ha
  phytotoxicity rating GLXMA: 0 (0 - No effect)
Glycine max [13]; 0.400 kg/ha
  phytotoxicity rating GLXMA: 0 (0 - No effect)
Glycine max [13]; 0.800 kg/ha
  phytotoxicity rating GLXMA: 0 (0 - No effect)
Echinochloa crus-galli [14]; 0.100 kg/ha
  phytotoxicity rating ECHCG: 0 (0 - No effect)
Echinochloa crus-galli [14]; 0.200 kg/ha
  phytotoxicity rating ECHCG: 0 (0 - No effect)
Echinochloa crus-galli [14]; 0.400 kg/ha
  phytotoxicity rating ECHCG: 0 (0 - No effect)
Apera spica venti [15]; 0.100 kg/ha
  phytotoxicity rating APESV: 0 (0 - No effect)
Apera spica venti [15]; 0.200 kg/ha
  phytotoxicity rating APESV: 6 (6 - Herbicidal effect)
Apera spica venti [15]; 0.400 kg/ha
  phytotoxicity rating APESV: 4 (4 - Injury)
Glycine max [16]; 0.100 kg/ha
  phytotoxicity rating GLXMA: 2 (2 - Slight effect)
Glycine max [16]; 0.200 kg/ha
  phytotoxicity rating GLXMA: 3 (3 - Moderate effect)
Glycine max [16]; 0.400 kg/ha
  phytotoxicity rating GLXMA: 4 (4 - Injury)
Setaria viridis [17]; 0.100 kg/ha
  phytotoxicity rating SETVI: 5 (5 - Definite injury)
Setaria viridis [17]; 0.200 kg/ha
  phytotoxicity rating SETVI: 8 (8 - Approaching complete kill)
Setaria viridis [17]; 0.400 kg/ha
  phytotoxicity rating SETVI: 9 (9 - Complete kill)
Setaria viridis [17]; 0.800 kg/ha
  phytotoxicity rating SETVI: 9 (9 - Complete kill)
Lolium perenne [18]; 0.100 kg/ha
  phytotoxicity rating LOLPE: 0 (0 - No effect)
Lolium perenne [18]; 0.200 kg/ha
  phytotoxicity rating LOLPE: 0 (0 - No effect)
Lolium perenne [18]; 0.400 kg/ha
  phytotoxicity rating LOLPE: 3 (3 - Moderate effect)
Lolium perenne [18]; 0.800 kg/ha
  phytotoxicity rating LOLPE: 8 (8 - Approaching complete kill)
Triticum aestivum [19]; 0.100 kg/ha
  phytotoxicity rating TRZAW: 0 (0 - No effect)
Triticum aestivum [19]; 0.200 kg/ha
  phytotoxicity rating TRZAW: 0 (0 - No effect)
Triticum aestivum [19]; 0.400 kg/ha
  phytotoxicity rating TRZAW: 0 (0 - No effect)
Amaranthus tuberculatus [20]; 0.100 kg/ha
  phytotoxicity rating AMATA: 3 (3 - Moderate effect)
Amaranthus tuberculatus [20]; 0.400 kg/ha
  phytotoxicity rating AMATA: 3 (3 - Moderate effect)
Echinochloa crus-galli [21]; 0.100 kg/ha
  phytotoxicity rating ECHCG: 5 (5 - Definite injury)
Echinochloa crus-galli [21]; 0.200 kg/ha
  phytotoxicity rating ECHCG: 6 (6 - Herbicidal effect)
Echinochloa crus-galli [21]; 0.400 kg/ha
  phytotoxicity rating ECHCG: 7 (7 - Good herbicidal effect)
Echinochloa crus-galli [21]; 0.800 kg/ha
  phytotoxicity rating ECHCG: 9 (9 - Complete kill)
Hordeum vulgare [22]; 0.100 kg/ha
  phytotoxicity rating HORVW: 0 (0 - No effect)
Hordeum vulgare [22]; 0.200 kg/ha
  phytotoxicity rating HORVW: 0 (0 - No effect)
Hordeum vulgare [22]; 0.400 kg/ha
  phytotoxicity rating HORVW: 2 (2 - Slight effect)
Hordeum vulgare [22]; 0.800 kg/ha
  phytotoxicity rating HORVW: 3 (3 - Moderate effect)
